For 15 compounds, IC50 results are on record in patent US10174044B2, “Fused pyridines as kinase inhibitors” (BRISTOL-MYERS SQUIBB COMPANY, priority 2015, dated 2019).

In the assay the target is GST-Xa-hAAK1 (Homo sapiens (Human), UniProt Q2M2I8). The assay is described as follows: AAK1 Kinase Assay. The following applies: bacterially expressed GST-Xa-hAAK1 3.5 nM; ATP 22 μM; fluoresceinated peptide substrate 1.5 μM; 3 hours at room temperature. The format is biochemical. As to the method:
The assays were performed in U-bottom 384-well plates. […] The reactions were initiated by the combination of bacterially expressed, GST-Xa-hAAK1 with substrates and test compounds. The reactions were incubated at room temperature for 3 hours and terminated by adding 60 μl of 35 mM EDTA buffer to each sample. The reactions were analyzed on the Caliper LabChip 3000 (Caliper, Hopkinton, Mass.) by electrophoretic separation of the fluorescent substrate and phosphorylated product. […] Compounds were dissolved at 10 mM in dimethylsulfoxide (DMSO) and evaluated at eleven concentrations. IC50 values were derived by non-linear regression analysis.

Chain of GST-Xa-hAAK1 (Q2M2I8 whole entry): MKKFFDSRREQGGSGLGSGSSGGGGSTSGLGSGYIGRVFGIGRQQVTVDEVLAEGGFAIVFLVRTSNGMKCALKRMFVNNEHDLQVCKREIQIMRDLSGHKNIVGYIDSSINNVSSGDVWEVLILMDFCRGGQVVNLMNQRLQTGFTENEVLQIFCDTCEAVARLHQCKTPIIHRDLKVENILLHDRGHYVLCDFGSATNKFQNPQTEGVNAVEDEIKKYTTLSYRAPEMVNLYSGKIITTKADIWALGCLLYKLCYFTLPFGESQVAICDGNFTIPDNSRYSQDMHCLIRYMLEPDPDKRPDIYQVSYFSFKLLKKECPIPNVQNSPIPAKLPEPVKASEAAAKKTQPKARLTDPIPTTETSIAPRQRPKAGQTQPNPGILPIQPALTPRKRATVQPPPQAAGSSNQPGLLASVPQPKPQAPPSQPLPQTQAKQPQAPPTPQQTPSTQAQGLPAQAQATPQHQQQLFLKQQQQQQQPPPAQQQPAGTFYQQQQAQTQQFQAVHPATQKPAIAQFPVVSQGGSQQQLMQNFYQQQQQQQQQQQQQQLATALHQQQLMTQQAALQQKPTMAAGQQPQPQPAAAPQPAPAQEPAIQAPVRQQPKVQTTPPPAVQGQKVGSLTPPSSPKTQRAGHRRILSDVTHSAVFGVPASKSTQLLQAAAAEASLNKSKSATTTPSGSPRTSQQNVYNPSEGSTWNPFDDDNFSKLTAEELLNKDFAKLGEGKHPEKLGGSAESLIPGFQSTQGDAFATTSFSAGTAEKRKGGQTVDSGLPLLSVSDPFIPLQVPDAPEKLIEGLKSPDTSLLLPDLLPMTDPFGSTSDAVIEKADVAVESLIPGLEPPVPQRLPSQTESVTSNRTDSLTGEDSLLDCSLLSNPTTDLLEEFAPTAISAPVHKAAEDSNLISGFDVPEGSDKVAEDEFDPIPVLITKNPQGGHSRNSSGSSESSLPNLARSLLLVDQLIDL

Consider `CC(C)C[C@H](N)COc1ccc2c(c1)c(=O)[nH]c1cnccc12` [Example 1, (S)-8-((2-amino-4-methylpentyl)oxy)benzo[c][1,7]naphthyridin-6(5H)-one], for which the IC50 is 9.5 nM. For `CC(C)C[C@H](N)COc1ccc2c(c1)c(=O)n(C)c1cnccc21` [Example 2, (S)-8-((2-amino-4-methylpentyl)oxy)-5-methylbenzo[c][1,7]naphthyridin-6(5H)-one] the value was 37 nM; for `Cc1cc2c(cc1OC[C@@H](N)CC(C)C)c(=O)n(C)c1cnccc21` [Example 3, (S)-8-((2-amino-4-methylpentyl)oxy)-5,9-dimethylbenzo[c][1,7]naphthyridin-6(5H)-one], 3.2 nM. `Cc1cc2c(cc1OC[C@@H](N)CC(C)C)c(=O)n(C)c1c(C)nccc21` [Example 4, (S)-8-((2-amino-4-methylpentyl)oxy)-4,5,9-trimethylbenzo[c][1,7]naphthyridin-6(5H)-one]: the IC50 stood at 14 nM.

Turning to `Cc1nccc2c3cc(Cl)c(OC[C@@H](N)CC(C)C)cc3c(=O)n(C)c12` [Example 5, (S)-8-((2-amino-4-methylpentyl)oxy)-9-chloro-4,5-dimethylbenzo[c][1,7]naphthyridin-6(5H)-one], the IC50 was 87 nM. With `Cc1cc2c(cc1OCC(N)CCC(F)(F)F)c(=O)n(C)c1cnccc21` (stereo not drawn) [Example 6, 8-((2-amino-5,5,5-trifluoropentyl)oxy)-5,9-dimethylbenzo[c][1,7]naphthyridin-6(5H)-one], the half-maximal inhibitory concentration (IC50) turned out to be 3.7 nM. For `CC(C)CC(C)(N)COc1ccc2c(c1)c(=O)n(C)c1cnccc21` (stereo not drawn) [Example 7, 8-((2-amino-2,4-dimethylpentyl)oxy)-5-methylbenzo[c][1,7]naphthyridin-6(5H)-one] the value was 31 nM; for `CC(C)CC(C)(N)COc1ccc2c(c1)c(=O)[nH]c1cnccc12` (stereo not drawn) [Example 8, 8-((2-amino-2,4-dimethylpentyl)oxy)benzo[c][1,7]naphthyridin-6(5H)-one], 2.6 nM. For `Cc1nccc2c3ccc(OCC(C)(N)CC(C)C)cc3c(=O)n(C)c12` (stereo not drawn) [Example 9, 8-((2-amino-2,4-dimethylpentyl)oxy)-4,5-dimethylbenzo[c][1,7]naphthyridin-6(5H)-one] the value was 49 nM; for `Cc1nccc2c3ccc(OC[C@@](C)(N)CC(C)C)cc3c(=O)n(C)c12` [Example 10, (S)-8-((2-amino-2,4-dimethylpentyl)oxy)-4,5-dimethylbenzo[c][1,7]naphthyridin-6(5H)-one], 35 nM; for `Cc1nccc2c3ccc(OC[C@](C)(N)CC(C)C)cc3c(=O)n(C)c12` [Example 11, (R)-8-((2-amino-2,4-dimethylpentyl)oxy)-4,5-dimethylbenzo[c][1,7]naphthyridin-6(5H)-one], 92 nM. Turning to `[2H]C([2H])(Oc1cc2c(=O)n(CC)c3c(C)nccc3c2cc1Cl)C(C)(N)CC(C)C` (stereo not drawn) [Example 12, 8-((2-amino-1,1-dideutero-2,4-dimethylpentyl)oxy)-9-chloro-5-ethyl-4-methylbenzo[c][1,7]naphthyridin-6(5H)-one], the half-inhibitory concentration (IC50) is 30 nM. Take `[2H]C([2H])(Oc1ccc2c(c1)c(=O)n(C)c1c(C)nccc21)C(C)(N)CC(C)C` (stereo not drawn) [Example 13, 8-((2-amino-1,1-dideutero-2,4-dimethylpentyl)oxy)-4,5-dimethylbenzo[c][1,7]naphthyridin-6(5H)-one]: the IC50 is 117 nM. `Cc1cc2c3ccc(OC[C@@](C)(N)CC(C)C)cc3c(=O)n(C)c2cn1` [Example 14, (S)-8-((2-amino-2,4-dimethylpentyl)oxy)-2,5-dimethylbenzo[c][1,7]naphthyridin-6(5H)-one]: the IC50 was 8.1 nM. On to `Cc1nccc2c3ccc(OC[C@@](C)(N)CC(C)C)c(Cl)c3c(=O)n(C)c12` [Example 15, (S)-8-((2-amino-2,4-dimethylpentyl)oxy)-7-chloro-4,5-dimethylbenzo[c][1,7]naphthyridin-6(5H)-one], for which the half-maximal inhibitory concentration (IC50) turned out to be 59 nM.
